According to PubChem BioAssay AID1919000 (Molecular Pharmacology Branch, DTP, NCI, 2023):
Where “and” joins values, the source holds several entries; their conditions need not be identical. Identical values can stand only once.

Tested on: 653999-131-R-J2-PDC complex spheroids, growth % test/control
Experiment: Anticancer human tumor 653999-131-R-J2-PDC patient-derived lung adenocarcinoma cell line growth inhibition [AhR]
Conditions: for viability, T/C: stronger effect = lower value
From the text: Multicellular complex tumor spheroid response to aryl hydrocarbon receptor antagonists in combination with a variety of drugs and investigational agents in selected tumor cell lines
The current study was undertaken to assess response to aryl hydrocarbon receptor antagonists in combination with standard-of-care drugs and investigational agents in solid tumor complex spheroid models. Complex spheroids include a stromal component modeled by human endothelial cells (HUVEC) and fibroblasts modeled by human mesenchymal stem cells (MSCs). The concentration ranges selected for each drug and investigational agent were based upon clinically achievable concentrations if the clinical Cmax of the agent was known.
Compounds. The drugs and investigational agents: BAY 2416964 (NSC825713), GNF351 (NSC835774), CH-223191 (NSC835775), CPI-455 (NSC825282), aza-TdCyd (NSC777586), decitabine (NSC127716), belinostat (NSC758774), entinostat (NSC756642), pevonedistat (NSC761192), tazemetostat (NSC777109), talazoparib (NSC765396), olaparib (NSC753686), selinexor (NSC780203), nedisertib (M3814, NSC802822), bortezomib (NSC756655), venetoclax (NSC766270), doxorubicin (NSC123127), elimusertib (BAY189344, NSC800525), ceralasertib (AZD6738, NSC777638), TAK-243 (NSC785004), alisertib (NSC759677), etoposide (NSC141540), topotecan (NSC609699), eribulin (NSC707389), gemcitabine (NSC613327), carboplatin (NSC241240), cisplatin (NSC119875), and SN-38 (NSC673596) were obtained from the National Cancer Institute (NCI) Developmental Therapeutics Program Chemical Repository (32). The FDA-approved anticancer drug set is available from the Developmental Therapeutics Program at https://dtp.cancer.gov/organization/dscb/obtaining/available plates.htm. […] The stock solutions were prepared in dimethyl sulfoxide (DMSO, Sigma-Aldrich, St. Louis, MO, cat. D2650), except for the platinum compounds which were prepared in saline (Quality Biological, Gaithersburg, MD, cat. 114-055-101), at 800-fold the tested concentration and stored at -70 degrees C prior to their use. All drugs and investigational agents were tested over a range starting from a high concentration at or near the clinical Cmax and decreasing in half-log increments. If the clinical Cmax for an agent had not been determined, the highest concentration tested was 10 microM (Table 1).
Cell Culture. All cells were maintained in an incubator at 37 degrees C and 5% CO2 with 95% humidity. The PDC lines were cultured according to standard operating procedures established by the NCI PDMR (https://pdmr.cancer.gov). Briefly, all PDCs were thawed and cultured in Matrigel-coated flasks prepared with a working solution of 1X Ham's F-12 nutrient mix, without supplementation (Invitrogen, Waltham, MA, cat. 11765054), 100 U/mL penicillin-streptomycin (Invitrogen, cat. 15140122), and 2.5% Matrigel (Corning Inc., Corning, NY, cat. 354248) for the first three passages. All PDCs were cultured in complete DMEM/F-12 media containing advanced DMEM/F-12 (Invitrogen, cat. 12634028), 4.9% defined fetal bovine serum, heat inactivated (HyClone Laboratories Inc., Logan, UT, cat. SH30070.03HI), 389 ng/mL hydrocortisone (Sigma-Aldrich, cat. H4001), 9.7 ng/mL human EGF recombinant protein (Invitrogen, cat. PHG0313), 23.4 microg/mL adenine (Sigma-Aldrich, cat. A2786), 97.3 U/mL penicillin-streptomycin (Invitrogen, cat. 15140122), 1.9 mM L-glutamine (Invitrogen, cat. 25030081), and 9.7 microM Y-27632 dihydrochloride (Tocris Bioscience, Bristol, United Kingdom, cat. 1254). The PDCs were cultured in complete DMEM/F12 media without 10 microM Y-27632 dihydrochloride for at least two passages prior to the screen. The established cell lines NCI-H1341 and […] were cultured in DMEM/F-12, HEPES (Invitrogen, cat. 11330032), 5% defined fetal bovine serum (HyClone Laboratories Inc., cat. SH30070.03), ITS premix universal culture supplement [insulin (5 microg/mL), transferrin (5 microg/mL), and selenious acid (5 ng/mL)] […]

[1] = curve of first compound, second compound 0.1 µM
[2] = curve of first compound, second compound 0.316 µM
[3] = curve of first compound, second compound 1 µM
[4] = curve of first compound, second compound 3.16 µM
[5] = curve of first compound, second compound 10 µM
[6] = second compound 0.1 µM, first compound 0.0316 µM
[7] = second compound 0.1 µM, first compound 0.1 µM
[8] = second compound 0.1 µM, first compound 0.316 µM
[9] = second compound 0.1 µM, first compound 1 µM
[10] = second compound 0.1 µM, first compound 3.16 µM
[11] = second compound 0.1 µM, first compound 10 µM
[12] = second compound 0.316 µM, first compound 0.0316 µM
[13] = second compound 0.316 µM, first compound 0.1 µM
[14] = second compound 0.316 µM, first compound 0.316 µM
[15] = second compound 0.316 µM, first compound 1 µM
[16] = second compound 0.316 µM, first compound 3.16 µM
[17] = second compound 0.316 µM, first compound 10 µM
[18] = second compound 1 µM, first compound 0.0316 µM
[19] = second compound 1 µM, first compound 0.1 µM
[20] = second compound 1 µM, first compound 0.316 µM
[21] = second compound 1 µM, first compound 1 µM
[22] = second compound 1 µM, first compound 3.16 µM
[23] = second compound 1 µM, first compound 10 µM
[24] = second compound 3.16 µM, first compound 0.0316 µM
[25] = second compound 3.16 µM, first compound 0.1 µM
[26] = second compound 3.16 µM, first compound 0.316 µM
[27] = second compound 3.16 µM, first compound 1 µM
[28] = second compound 3.16 µM, first compound 3.16 µM
[29] = second compound 3.16 µM, first compound 10 µM
[30] = second compound 10 µM, first compound 0.0316 µM
[31] = second compound 10 µM, first compound 0.1 µM
[32] = second compound 10 µM, first compound 0.316 µM
[33] = second compound 10 µM, first compound 1 µM
[34] = second compound 10 µM, first compound 3.16 µM
[35] = second compound 10 µM, first compound 10 µM
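Note: spheroids exposed to agents for seven days.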

Structure (SMILES): COc1cc(C2c3cc4c(cc3C(OC3OC5COC(C)OC5C(O)C3O)C3COC(=O)C23)OCO4)cc(OC)c1O (configuration not stated) + Cc1ccccc1N=Nc1ccc(NC(=O)c2ccnn2C)c(C)c1
- IC50 [1]: 0.846 µM
- IC50 [2]: 0.568 µM
- IC50 [3]: 0.513 µM
- IC50 [4]: 0.965 µM
- IC50 [5]: 0.962 µM
- viability, T/C [6]: 86%
- viability, T/C [7]: 76%
- viability, T/C [8]: 58.6%
- viability, T/C [9]: 48.8%
- viability, T/C [10]: 38.1%
- viability, T/C [11]: 28.3%
- viability, T/C [12]: 86.2%
- viability, T/C [13]: 68.6%
- viability, T/C [14]: 54%
- viability, T/C [15]: 47.3%
- viability, T/C [16]: 34%
- viability, T/C [17]: 29.1%
- viability, T/C [18]: 90.2%
- viability, T/C [19]: 72.6%
- viability, T/C [20]: 53.7%
- viability, T/C [21]: 42.8%
- viability, T/C [22]: 37.7%
- viability, T/C [23]: 30.2%
- viability, T/C [24]: 80%
- viability, T/C [25]: 77.4%
- viability, T/C [26]: 62%
- viability, T/C [27]: 46.1%
- viability, T/C [28]: 42.5%
- viability, T/C [29]: 27.7%
- viability, T/C [30]: 72.6%
- viability, T/C [31]: 68.7%
- viability, T/C [32]: 58%
- viability, T/C [33]: 49%
- viability, T/C [34]: 41.4%
- viability, T/C [35]: 31.8%

Structure (SMILES): Nc1ccccc1NC(=O)c1ccc(CNC(=O)OCc2cccnc2)cc1 + Cc1cncc(-c2nc(NCCc3c[nH]c4ccccc34)c3ncn(C(C)C)c3n2)c1
- IC50 [1]: 2.93 µM
- IC50 [2]: 2.89 µM
- IC50 [3]: 3.06 µM
- IC50 [4]: 2.71 µM
- IC50 [5]: 0.388 µM
- viability, T/C [6]: 85.2%
- viability, T/C [7]: 86.2%
- viability, T/C [8]: 88.8%
- viability, T/C [9]: 61.4%
- viability, T/C [10]: 52%
- viability, T/C [11]: 15.9%
- viability, T/C [12]: 91.1%
- viability, T/C [13]: 85.9%
- viability, T/C [14]: 84.3%
- viability, T/C [15]: 57.2%
- viability, T/C [16]: 56.6%
- viability, T/C [17]: 13.2%
- viability, T/C [18]: 88.3%
- viability, T/C [19]: 86.7%
- viability, T/C [20]: 69.3%
- viability, T/C [21]: 65.7%
- viability, T/C [22]: 55.6%
- viability, T/C [23]: 13.3%
- viability, T/C [24]: 93%
- viability, T/C [25]: 113%
- viability, T/C [26]: 88.4%
- viability, T/C [27]: 57.7%
- viability, T/C [28]: 55.4%
- viability, T/C [29]: 8.91%
- viability, T/C [30]: 66.7%
- viability, T/C [31]: 46.9%
- viability, T/C [32]: 45.3%
- viability, T/C [33]: 44.3%
- viability, T/C [34]: 36.6%
- viability, T/C [35]: 4.53%

Structure (SMILES): O=C(c1cc(Cc2n[nH]c(=O)c3ccccc23)ccc1F)N1CCN(C(=O)C2CC2)CC1
- viability, T/C (compound 0.0316 µM): 107% and 92.7% and 109%
- viability, T/C (compound 0.1 µM): 102% and 99.8% and 95.5%
- viability, T/C (compound 0.316 µM): 96.7% and 98.2% and 106%
- viability, T/C (compound 1 µM): 98.8% and 93.7% and 86.1%
- viability, T/C (compound 3.16 µM): 97.4% and 95.6% and 95.2%
- viability, T/C (compound 10 µM): 86% and 84.6% and 77.5%
- IC50 (curve of compound): > 10 µM
